We go through 3 compounds from US9434763B2, “Derivatives of pyridinone as inhibitors for tissue transglutaminase” (ZEDIRA GMBH, priority 2012, dated 2016).

The term IC50 denotes the concentration that inhibits the measured activity by half. A lower IC50 goes with greater potency.

Each structure is given as a SMILES string.

What all share (type): biochemical
Settings in all cases: casein as substrate

One experiment concerns the target T1, TG1 (transglutaminase 1) (Homo sapiens, UniProt P22735).
T1 construct: purchased Zedira T009
T1 sequence (P22735 1-817): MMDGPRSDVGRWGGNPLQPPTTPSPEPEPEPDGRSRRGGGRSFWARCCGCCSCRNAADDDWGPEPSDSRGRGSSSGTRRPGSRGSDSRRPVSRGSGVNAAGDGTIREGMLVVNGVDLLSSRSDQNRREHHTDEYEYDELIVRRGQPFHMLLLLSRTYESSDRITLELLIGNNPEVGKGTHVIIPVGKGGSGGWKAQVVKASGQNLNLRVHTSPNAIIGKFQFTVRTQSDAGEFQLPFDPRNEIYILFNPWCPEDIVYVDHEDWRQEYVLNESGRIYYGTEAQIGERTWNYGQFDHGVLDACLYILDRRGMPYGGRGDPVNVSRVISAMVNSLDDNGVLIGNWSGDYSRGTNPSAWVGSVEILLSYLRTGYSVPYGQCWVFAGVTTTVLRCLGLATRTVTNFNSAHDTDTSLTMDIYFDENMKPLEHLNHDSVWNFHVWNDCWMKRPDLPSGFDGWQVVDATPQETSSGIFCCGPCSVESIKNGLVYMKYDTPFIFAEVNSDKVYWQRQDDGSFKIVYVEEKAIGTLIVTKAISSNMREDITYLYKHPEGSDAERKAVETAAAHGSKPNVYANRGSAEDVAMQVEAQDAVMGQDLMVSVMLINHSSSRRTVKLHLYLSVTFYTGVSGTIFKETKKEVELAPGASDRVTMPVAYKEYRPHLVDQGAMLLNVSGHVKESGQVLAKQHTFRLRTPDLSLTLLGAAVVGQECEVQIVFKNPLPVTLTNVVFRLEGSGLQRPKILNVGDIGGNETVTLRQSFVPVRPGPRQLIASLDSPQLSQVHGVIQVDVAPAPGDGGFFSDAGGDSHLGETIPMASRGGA
The experiment is described as follows: Comparative transglutaminase selectivity assay with casein and dansylcadaverine as substrates: TG1. An excerpt: (§1) The comparative determination of different transglutaminases to determine the selectivity was made with casein and dansylcadaverine as substrates. Therefore, the kit T036 (Zedira, Darmstadt; Refs: Lorand et al, Anal Biochem, 1971, 44:221-31) as well as transglutaminase products T009 (transglutaminase 1), T012 (transglutaminase 3), T021 (transglutaminase 6) and T027 (plasma transglutaminase, factor XIII) are used. Therefore, two different IC50 values for the compounds are given.
(§2) The evaluation of the resulting enzyme activity is done using the slope of the straight line obtained by the increase in fluorescence.
(§3) To determine the non-inhibited enzyme activity, DMSO instead of inhibitor stock solution is used. IC50 values are determined by plotting the resulting enzyme activity against the logarithm of the inhibitor concentration. IC50 is defined as the concentration of inhibitor resulting in 50% of enzyme activity.
(§4) It should be noted that it was measured here against casein as substrate, which is why other apparent inhibition values (IC50 value) result.

In the next experiment the target is T2, TG6 (transglutaminase 6) (Homo sapiens, UniProt O95932).
T2 construct: purchased Zedira T021
T2 sequence (O95932 1-706): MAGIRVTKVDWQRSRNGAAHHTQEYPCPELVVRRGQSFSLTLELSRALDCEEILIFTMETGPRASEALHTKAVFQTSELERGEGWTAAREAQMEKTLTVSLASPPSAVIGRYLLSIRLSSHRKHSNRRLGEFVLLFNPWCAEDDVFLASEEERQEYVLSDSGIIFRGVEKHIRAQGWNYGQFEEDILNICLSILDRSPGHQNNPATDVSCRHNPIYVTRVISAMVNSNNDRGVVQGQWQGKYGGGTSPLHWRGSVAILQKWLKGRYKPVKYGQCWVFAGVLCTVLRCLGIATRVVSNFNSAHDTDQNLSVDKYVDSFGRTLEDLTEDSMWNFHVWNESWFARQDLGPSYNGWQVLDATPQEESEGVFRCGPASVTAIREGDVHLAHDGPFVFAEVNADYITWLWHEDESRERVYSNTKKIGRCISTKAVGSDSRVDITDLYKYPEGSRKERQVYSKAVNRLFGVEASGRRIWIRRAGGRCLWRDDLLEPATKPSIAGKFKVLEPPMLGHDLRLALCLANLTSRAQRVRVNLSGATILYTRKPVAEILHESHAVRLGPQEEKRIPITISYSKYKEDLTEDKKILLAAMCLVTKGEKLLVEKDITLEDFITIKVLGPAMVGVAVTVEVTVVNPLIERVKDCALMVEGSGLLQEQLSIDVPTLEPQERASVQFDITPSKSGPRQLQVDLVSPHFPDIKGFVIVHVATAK
The experiment is described as follows: Comparative transglutaminase selectivity assay with casein and dansylcadaverine as substrates: TG6.
Text: as §1, §2, §3, §4

The next experiment has as its target T3, TG3 (transglutaminase 3) (Homo sapiens, UniProt Q08188).
T3 construct: purchased Zedira T012
T3 sequence (Q08188 1-693): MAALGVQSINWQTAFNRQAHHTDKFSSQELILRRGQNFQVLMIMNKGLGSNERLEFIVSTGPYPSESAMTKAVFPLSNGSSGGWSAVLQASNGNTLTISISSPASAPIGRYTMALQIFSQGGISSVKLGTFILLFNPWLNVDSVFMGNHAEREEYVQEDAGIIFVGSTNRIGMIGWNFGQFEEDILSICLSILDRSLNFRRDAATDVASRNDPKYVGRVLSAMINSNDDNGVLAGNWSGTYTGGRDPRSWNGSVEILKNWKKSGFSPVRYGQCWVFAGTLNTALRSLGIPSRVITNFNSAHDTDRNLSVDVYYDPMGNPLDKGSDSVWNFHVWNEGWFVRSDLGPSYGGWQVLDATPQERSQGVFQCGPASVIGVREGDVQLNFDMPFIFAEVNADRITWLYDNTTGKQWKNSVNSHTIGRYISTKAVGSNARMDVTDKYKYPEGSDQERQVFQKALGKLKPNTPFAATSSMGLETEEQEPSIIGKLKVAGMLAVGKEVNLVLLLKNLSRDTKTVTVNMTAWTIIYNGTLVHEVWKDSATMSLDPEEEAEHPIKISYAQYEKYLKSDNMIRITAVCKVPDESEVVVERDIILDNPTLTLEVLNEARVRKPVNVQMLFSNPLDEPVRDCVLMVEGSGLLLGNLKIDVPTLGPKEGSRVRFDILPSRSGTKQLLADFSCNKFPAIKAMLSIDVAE
The experiment is described as follows: Comparative transglutaminase selectivity assay with casein and dansylcadaverine as substrates: TG3.
Text: as §1, §2, §3, §4

Consider `COC(=O)/C=C/CC[C@H](NC(C)=O)C(=O)Nc1cccn(CC(=O)N2CCCC(C)C2)c1=O` (stereo partly drawn) [A64, (6S,E)-Methyl 6-acetamido-7-(1-(2-(3-methylpipendin-1-yl)-2-oxoethyl)-2-oxo-1,2-dihydropyridin-3-ylamino)-7-oxohept-2-enoate], for which the values for the IC50 on TG1 (transglutaminase 1), against TG6 (transglutaminase 6) and on TG3 (transglutaminase 3) were 122 µM, 109 µM and 125 µM, respectively.
Regarding `COC(=O)/C=C/CC[C@H](NC(C)=O)C(=O)Nc1cccn(CC(=O)N2CCC(C(F)(F)F)CC2)c1=O` [A65, (S,E)-Methyl 6-acetamido-7-oxo-7-(2-oxo-1-(2-oxo-2-(4-(trifluoromethyl)piperidin-1-yl)ethyl)-1,2-dihydropyridin-3-ylamino)hept-2-enoate], the IC50 against TG1 (transglutaminase 1) is 120 µM; against TG6 (transglutaminase 6) it was 37.7 µM; against TG3 (transglutaminase 3) it was 100 µM.
As for `CCC(CC)CNC(=O)Cn1cccc(NC(=O)[C@H](CC/C=C/C(=O)OC)NC(C)=O)c1=O` [A79, (S,E)-Methyl 6-acetamido-7-(1-(2-(2-ethylbutylamino)-2-oxoethyl)-2-oxo-1,2-dihydropyridin-3-ylamino)-7-oxohept-2-enoate], the IC50 is 80.7 µM against TG1 (transglutaminase 1), 47.8 µM at TG6 (transglutaminase 6) and 59.6 µM against TG3 (transglutaminase 3).
